Test results reported in patent US10500301B2, “Agent for salting out active principles in dressings containing at least one of fatty substance” (URGO RECHERCHE INNOVATION ET DEVELOPPEMENT, priority 2007, dated 2019).

What was measured:
[1] = system: normal human dermal fibroblasts (NHDF) R9PF2; test: Effect of dressings on fibroblast cultures (MTT test, tritiated thymidine incorporation); format: cell-based; settings: releasing agent in dressings
Experimental: • Type: pool of normal human dermal fibroblasts (NHDF) R9PF2 • Culture: 37° C., 5% CO2 Culture Medium: • DMEM (Dulbecco's Modified Eagle Medium, Invitrogen 21969035) • 2 mM L-glutamine (Invitrogen 25030024) • 50 UI/ml penicillin, 50 μg/ml streptomycin (Invitrogen 15070063) • 10% fetal calf serum (v/v, Invitrogen 10270098). Products Tested:
Dressings according to examples 1 and 23 were cut to the size of the wells and tested.
The fibroblasts were seeded at confluence in a 12-well plate.
Pieces of each dressing were cut to a size of 1.4 cm×1.4 cm (i.e. 1.96 cm^2), applied to the surface of the fibroblasts and held in place using a plug. A control without dressing but with a plug, and also a control without dressing and without plug were carried out.
The cells were then incubated for 48 hours, 96 hours and 168 hours (7 days) at 37° C. and 5% CO2. For each incubation time, the metabolic activity was measured using a standard MTT test, which accounts for the mitochondrial dehydrogenases activity. Tritiated thymidine ([methyl-3H]-thymidine, Amersham TRK 686 2.5 μCi/ml final concentration) was added during the last 24 hours of incubation, and then the DNA of the cells of the cell layers was extracted and purified and the radioactivity incorporated into the DNA was counted using a scintillation counter.
All experiments were carried out in triplicate. […]

[2] = Release of the active substance from interface dressings into physiological saline solution, HPLC assay; format: physicochemical; settings: Sepinov EMT 10 versus Montanox 80 as releasing agent in interface dressings, irrespective of the active substance
Experimental: In the case of interface dressings, prepared from the masses of examples 1 to 4 and 13 to 18, samples of 25 cm^2 of dressing (cut with a calibrated punch and precisely weighed) were introduced into an Erlenmeyer flask containing 10 ml of physiological saline solution. The glassware, hermetically sealed, was placed in an incubator at 37° C. for 24 h. The supernatant was removed and filtered. The amount of active substance was assayed by HPLC (high performance liquid chromatography) according to the methods described below.
The following conditions for assaying by high performance liquid chromatography (HPLC) were used: […]
The detection threshold for the potassium sucrose octasulfate was 0.06 mg/ml. When no peak was detected, the result was increased by the detection threshold. […]
The detection threshold for the silver sulfadiazine was 0.0006 mg/ml. When no peak was detected, the result was increased by the detection threshold.
• A calibration straight line was plotted using the calibration points, and the equation of the straight line y=ax+b (r^2>0.999), in which y=surface area under the peak x=concentration of the standard (in mg/ml) r^2=determination coefficient, was calculated. • The content of potassium sucrose octasulfate or silver sulfadiazine (x) was calculated. […]
The percentage of release of the active substance is calculated according to the following formula: […]

polysorbate 80
Effect on fibroblasts (toxicity / proliferation), in words [1]: exhibits toxicity with respect to these cells
Release of the active substance with the releasing agent, comparison in words [2]: substantially the same release of the active substance
